Measurements reported in patent publication US20150087673A1, “METHODS FOR USING AND BIOMARKERS FOR AMPK-ACTIVATING COMPOUNDS” (RIGEL PHARMACEUTICALS, INC., priority 2013, published 2015).
pEC50: −log10 of the molar value.

test system: AMPK; experiment: AMPK activation assay (enzyme-linked immunosorbent assay); type: cell-based
Outline: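 Read-out: immunodetected kinase activation after compound exposure, run with commercial kit reagents.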

SMILES | pEC50
N#Cc1ccc(CN2CCC(NC(=O)c3ccc(N4CCC(Oc5ccc(C(F)(F)F)cc5)CC4)cn3)CC2)cc1 [Compound 301, N-(1-(4-cyanobenzyl)piperidin-4-yl)-5-(4-(4-(trifluoromethyl)phenoxy)piperidin-1-yl)picolinamide] | > 6.30
COc1ccc(C(=O)C2CCN(c3ccc(C(=O)NC4CCN(Cc5ccc(C#N)cc5)CC4)nc3)CC2)cc1 [Compound 302, N-(1-(4-cyanobenzyl)piperidin-4-yl)-5-(4-(4-methoxybenzoyl)piperidin-1-yl)picolinamide] | > 6.30
N#Cc1ccc(OC2CCN(C(=O)c3ccc(C(=O)N[C@H]4CC[C@@H](Oc5ccc(F)cc5)CC4)nc3)CC2)cc1 [Compound 303, 5-(4-(4-cyanophenoxy)piperidine-1-carbonyl)-N-((cis)-4-(4-fluorophenoxy)cyclohexyl)picolinamide] | > 6.30
O=C(N[C@H]1CC[C@@H](Oc2ccc(F)cc2)CC1)c1ccc(C(=O)N2CCC(C(=O)c3ccc(F)cc3)CC2)cn1 [Compound 304, 5-(4-(4-fluorobenzoyl)piperidine-1-carbonyl)-N-((cis)-4-(4-fluorophenoxy)cyclohexyl)picolinamide] | > 6.30
COc1ccc(C(=O)C2CCN(C(=O)c3ccc(C(=O)NCCOc4ccc(F)cc4)nc3)CC2)cc1 [Compound 305, N-(2-(4-fluorophenoxy)ethyl)-5-(4-(4-methoxybenzoyl)piperidine-1-carbonyl)picolinamide] | > 6.30
N#Cc1ccc(OC2CCN(C(=O)c3ccc(C(=O)NCCOc4ccc(F)cc4)nc3)CC2)cc1 [Compound 306, 5-(4-(4-cyanophenoxy)piperidine-1-carbonyl)-N-(2-(4-fluorophenoxy)ethyl)picolinamide] | > 6.30
N#Cc1ccc(CN2CCC(NC(=O)c3ccc(C(=O)N4CC(OCc5ccc(F)cc5)C4)cn3)CC2)cc1 [Compound 307, N-(1-(4-cyanobenzyl)piperidin-4-yl)-5-(3-(4-fluorobenzyloxy)azetidine-1-carbonyl)picolinamide] | 6.00 to 6.30
O=C(NC1CCN(Cc2cc(F)cc(F)c2)CC1)c1ccc(C(=O)N2CC(OCc3ccc(F)cc3)C2)cn1 [Compound 308, N-(1-(3,5-difluorobenzyl)piperidin-4-yl)-5-(3-(4-fluorobenzyloxy)azetidine-1-carbonyl)picolinamide] | > 6.30
COc1ccc(C(=O)C2CCN(C(=O)c3ccc(C(=O)NC4CCN(Cc5cc(F)cc(F)c5)CC4)cn3)CC2)cc1 [Compound 310, N-(1-(3,5-difluorobenzyl)piperidin-4-yl)-6-(4-(4-methoxybenzoyl)piperidine-1-carbonyl)nicotinamide] | > 6.30
COc1ccc(C(=O)C2CCN(C(=O)c3ccc(C(=O)N[C@H]4CC[C@@H](Oc5ccc(F)cc5)CC4)nc3)CC2)cc1 [Compound 311, N-((cis)-4-(4-fluorophenoxy)cyclohexyl)-5-(4-(4-methoxybenzoyl)piperidine-1-carbonyl)picolinamide] | > 6.30
O=C(N[C@H]1CC[C@@H](Oc2ccc(F)cc2)CC1)c1ccc(C(=O)N2CCC(Oc3ccc(F)cc3)CC2)cn1 [Compound 312, N-((cis)-4-(4-fluorophenoxy)cyclohexyl)-5-(4-(4-fluorophenoxy)piperidine-1-carbonyl)picolinamide] | > 6.30
N#Cc1ccc(OC2CN(C(=O)c3ccc(C(=O)NC4CCN(Cc5cc(F)cc(F)c5)CC4)nc3)C2)cc1 [Compound 313, 5-(3-(4-cyanophenoxy)azetidine-1-carbonyl)-N-(1-(3,5-difluorobenzyl)piperidin-4-yl)picolinamide] | > 6.30
N#Cc1ccc(-c2nnc3n2CCN(C(=O)c2ccc(C(=O)NC4CCN(Cc5cc(F)cc(F)c5)CC4)nc2)C3)cc1 [Compound 314, 5-(3-(4-cyanophenyl)-5,6,7,8-tetrahydro-[1,2,4]triazolo[4,3-a]pyrazine-7-carbonyl)-N-(1-(3,5-difluorobenzyl)piperidin-4-yl)picolinamide] | < 5.00
COc1ccc(C(=O)C2CCN(C(=O)c3ccc(C(=O)NC4CCC(Oc5ccc(C#N)cc5)CC4)cn3)CC2)cc1 (stereo not shown) [Compound 315, N-((1s,4s)-4-(4-cyanophenoxy)cyclohexyl)-6-(4-(4-methoxybenzoyl)piperidine-1-carbonyl)nicotinamide] | > 6.30
COc1ccc(C(=O)C2CCN(C(=O)c3ccc(C(=O)N[C@H]4CC[C@@H](Oc5ccc(F)cc5)CC4)cn3)CC2)cc1 [Compound 316, N-((cis)-4-(4-fluorophenoxy)cyclohexyl)-6-(4-(4-methoxybenzoyl)piperidine-1-carbonyl)nicotinamide] | > 6.30
COc1ccc(C(=O)C2CCN(C(=O)c3ccc(C(=O)NC4CCN(Cc5ccc(F)cc5)CC4)cn3)CC2)cc1 [Compound 317, N-(1-(4-fluorobenzyl)piperidin-4-yl)-6-(4-(4-methoxybenzoyl)piperidine-1-carbonyl)nicotinamide] | > 6.30
COc1ccc(CN2CCC(NC(=O)c3ccc(C(=O)N4CCC(C(=O)c5ccc(OC)cc5)CC4)nc3)CC2)cc1 [Compound 318, 6-(4-(4-methoxybenzoyl)piperidine-1-carbonyl)-N-(1-(4-methoxybenzyl)piperidin-4-yl) nicotinamide] | > 6.30

SMILES | pEC50
COc1ccc(CN2CCC(NC(=O)c3ccc(C(=O)N4CCC(Oc5ccc(C#N)cc5)CC4)nc3)CC2)cc1 [Compound 319, 6-(4-(4-cyanophenoxy)piperidine-1-carbonyl)-N-(1-(4-methoxybenzyl)piperidin-4-yl) nicotinamide] | > 6.30
N#Cc1ccc(OC2CCN(C(=O)c3ccc(C(=O)NC4CCN(Cc5ccc(F)cc5)CC4)cn3)CC2)cc1 [Compound 320, 6-(4-(4-cyanophenoxy)piperidine-1-carbonyl)-N-(1-(4-fluorobenzyl)piperidin-4-yl)nicotinamide] | > 6.30
N#Cc1ccc(OC2CCN(C(=O)c3ccc(C(=O)N[C@H]4CC[C@@H](Oc5ccc(C#N)cc5)CC4)cn3)CC2)cc1 [Compound 321, N-((cis)-4-(4-cyanophenoxy)cyclohexyl)-6-(4-(4-cyanophenoxy)piperidine-1-carbonyl)nicotinamide] | > 6.30
N#Cc1ccc(OC2CCN(C(=O)c3ccc(C(=O)NC4CCN(Cc5cc(F)cc(F)c5)CC4)cn3)CC2)cc1 [Compound 322, 6-(4-(4-cyanophenoxy)piperidine-1-carbonyl)-N-(1-(3,5-difluorobenzyl)piperidin-4-yl)nicotinamide] | > 6.30
N#Cc1ccc(CN2CCC(NC(=O)c3ccc(C(=O)N4CCC(Oc5ccc(C#N)cc5)CC4)nc3)CC2)cc1 [Compound 323, N-(1-(4-cyanobenzyl)piperidin-4-yl)-6-(4-(4-cyanophenoxy)piperidine-1-carbonyl)nicotinamide] | > 6.30
N#Cc1ccc(OC2CCN(C(=O)c3ccc(C(=O)N[C@H]4CC[C@@H](Oc5ccc(F)cc5)CC4)cn3)CC2)cc1 [Compound 324, 6-(4-(4-cyanophenoxy)piperidine-1-carbonyl)-N-((cis)-4-(4-fluorophenoxy)cyclohexyl)nicotinamide] | > 6.30
COc1ccc(C(=O)C2CCN(C(=O)c3ccc(C(=O)Nc4ccc(Oc5ccc(F)cc5)nc4)cn3)CC2)cc1 [Compound 325, N-(6-(4-fluorophenoxy)pyridin-3-yl)-6-(4-(4-methoxybenzoyl)piperidine-1-carbonyl)nicotinamide] | > 6.30
N#Cc1ccc(OC2CCN(C(=O)c3ccc(C(=O)Nc4ccc(Oc5ccc(F)cc5)nc4)cn3)CC2)cc1 [Compound 326, 6-(4-(4-cyanophenoxy)piperidine-1-carbonyl)-N-(6-(4-fluorophenoxy)pyridin-3-yl)nicotinamide] | > 6.30
COc1ccc(CN2CCC(NC(=O)c3ccc(C(=O)N4CCN(Cc5ccc(F)cc5)CC4)nc3)CC2)cc1 [Compound 327, 6-(4-(4-fluorobenzyl)piperazine-1-carbonyl)-N-(1-(4-methoxybenzyl)piperidin-4-yl) nicotinamide] | > 6.30
O=C(NC1CCN(Cc2ccc(F)cc2)CC1)c1ccc(C(=O)N2CCN(Cc3ccc(F)cc3)CC2)nc1 [Compound 328, 6-(4-(4-fluorobenzyl)piperazine-1-carbonyl)-N-(1-(4-fluorobenzyl)piperidin-4-yl)nicotinamide] | > 6.30
COc1ccc(CN2CCC(NC(=O)c3ccc(C(=O)N4CCC(C(=O)c5ccc(F)c(F)c5)CC4)cn3)CC2)cc1 [Compound 329, 5-(4-(3,4-difluorobenzoyl)piperidine-1-carbonyl)-N-(1-(4-methoxybenzyl)piperidin-4-yl) picolinamide] | > 6.30
O=C(Nc1ccc(Oc2ccc(F)cc2)nc1)c1ccc(C(=O)N2CCC(C(=O)c3ccc(F)c(F)c3)CC2)cn1 [Compound 330, 5-(4-(3,4-difluorobenzoyl)piperidine-1-carbonyl)-N-(6-(4-fluorophenoxy)pyridin-3-yl)picolinamide] | 6.00 to 6.30
COc1ccc(CN2CCC(NC(=O)c3ccc(C(=O)N4CCC(C(=O)c5ccc(F)cc5F)CC4)cn3)CC2)cc1 [Compound 331, 5-(4-(2,4-difluorobenzoyl)piperidine-1-carbonyl)-N-(1-(4-methoxybenzyl)piperidin-4-yl) picolinamide] | > 6.30
N#Cc1ccc(O[C@H]2CC[C@@H](NC(=O)c3ccc(C(=O)N4CCN(Cc5ccc(F)cc5)CC4)nc3)CC2)cc1 [Compound 332, N-((cis)-4-(4-cyanophenoxy)cyclohexyl)-6-(4-(4-fluorobenzyl)piperazine-1-carbonyl)nicotinamide] | > 6.30
CC(C)(C)OC(=O)N1CCC(NC(=O)c2ccc(C(=O)N3CCC(Oc4ccc(C#N)cc4)CC3)nc2)CC1 [Compound 333, tert-butyl 4-(6-(4-(4-cyanophenoxy)piperidine-1-carbonyl)nicotinamido) piperidine-1-carboxylate] | > 6.30
O=C(Nc1ccc(Oc2ccc(F)cc2)nc1)c1ccc(C(=O)N2CCN(Cc3ccc(F)cc3)CC2)nc1 [Compound 334, 6-(4-(4-fluorobenzyl)piperazine-1-carbonyl)-N-(6-(4-fluorophenoxy)pyridin-3-yl)nicotinamide] | > 6.30
N#Cc1ccc(OC2CCN(C(=O)c3ccc(C(=O)NC4CCNCC4)cn3)CC2)cc1 [Compound 335, 6-(4-(4-cyanophenoxy)piperidine-1-carbonyl)-N-(piperidin-4-yl) nicotinamide] | < 5.00
